Laboratory results: PubChem BioAssay (NCI)
Values joined by “and” are separate entries in the source; they are usually repeats but may differ in a detail not shown here. Identical values can stand only once.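 Five compound concentrations were applied to cells in 96-well plates for 48 hours; endpoints were derived by simple linear interpolation of the resulting dose-response curve. Abbreviation: GI50, concentration required for 50% inhibition of growth. At the TGI there is no net growth.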

Assays:
Assay in all cases: NCI anticancer screen, dose series, 48 h
[1] = test system: CAKI-1 renal
[2] = test system: HOP-92 NSCLC
[3] = test system: UO-31 renal
[4] = test system: SR leukemia
[5] = test system: IGROV1 ovarian
[6] = test system: LOX IMVI melanoma
[7] = test system: SK-MEL-28 melanoma
[8] = test system: UACC-62 melanoma
[9] = test system: SK-MEL-2 melanoma
[10] = test system: MCF7 breast

## Cc1cc(C)nc(NS(=O)(=O)c2ccc(Nc3c4ccc(Cl)cc4nc4c(C(=O)NCCN(C)C)cccc34)cc2)n1
[1]
  TGI: > 100 µM
[2]
  TGI: > 100 µM
[3]
  TGI: > 100 µM
[4]
  TGI: > 100 µM
[5]
  TGI: > 100 µM
[6]
  TGI: > 100 µM
[7]
  TGI: > 100 µM
[8]
  TGI: > 100 µM

## COc1cc(/C=C/C(=O)N2CCN(C(=O)c3cc(OC)c(OC)c(OC)c3)CC2)ccc1OCCCOc1cc2c(cc1OC)C(=O)N1CCC[C@H]1C=N2
[1]
  GI50: 1.54 µM
  TGI: 6.08 µM
[2]
  GI50: 0.297 µM
  TGI: 7.46 µM
[3]
  GI50: 1.98 µM
  TGI: 6.56 µM
[9]
  GI50: 0.26 µM
  TGI: 0.703 µM
[6]
  GI50: 0.215 µM
  TGI: 0.726 µM
[7]
  GI50: 0.212 µM
  TGI: 0.417 µM
[8]
  GI50: 0.162 µM
  TGI: 0.338 µM
[10]
  GI50: 0.109 µM
  TGI: 0.636 µM

## COc1cc([C@@H]2C[C@H]2c2cc(SC)n[nH]2)cc(OC)c1OC
[1]
  GI50: 15.6 µM
  TGI: 37.9 µM
[3]
  GI50: 23 µM
  TGI: > 100 µM
[5]
  GI50: 18.3 µM
  TGI: > 100 µM
[9]
  GI50: 25.6 µM
  TGI: 67.2 µM
[6]
  GI50: 93.9 µM
  TGI: > 100 µM
[7]
  GI50: 23.5 µM
  TGI: > 100 µM
[8]
  GI50: 14 µM
  TGI: 43.6 µM
[10]
  GI50: 18.8 µM
  TGI: 41.2 µM

## COC(=O)C1=C(C(=O)OC)C2(C)Nc3ccccc3C2=C(c2ccccc2)C1 (stereo not drawn)
[2]
  TGI: 38.9 µM
[3]
  TGI: 38.2 µM
[5]
  TGI: 52.9 µM
[9]
  TGI: 39 µM
[6]
  TGI: 55.7 µM
[7]
  TGI: 40.7 µM
[8]
  TGI: 38.5 µM

## CC1(c2ccccc2)CC(c2cccc([N+](=O)[O-])c2)=NO1 (stereo not drawn)
[2]
  TGI: > 100 µM
[3]
  TGI: > 100 µM
[4]
  TGI: > 100 µM
[5]
  TGI: > 100 µM
[9]
  TGI: > 100 µM
[7]
  TGI: > 100 µM

## COc1ccc(-n2ccnc2-c2cc(OC)c(OC)c(OC)c2)cc1
[1]
  GI50: 1.28 µM
  TGI: 7.69 µM
[2]
  GI50: 20 µM
  TGI: > 100 µM
[3]
  GI50: 4.91 µM
  TGI: 71.2 µM
[5]
  GI50: 2.42 µM
  TGI: > 100 µM
[9]
  GI50: 7.27 µM
  TGI: > 100 µM
[6]
  GI50: 7.99 µM
  TGI: > 100 µM
[7]
  GI50: 2.99 µM
  TGI: > 100 µM
[8]
  GI50: 2.61 µM
  TGI: 27.3 µM
[10]
  GI50: 1.55 µM
  TGI: > 100 µM

## O=C(Nc1ccccc1)c1cc(S(=O)(=O)Nc2nc3ccccc3o2)c(SCc2ccccc2)cc1Cl
[1]
  GI50: 19.3 µM
  TGI: 35.5 µM
[3]
  GI50: 17.8 µM
  TGI: 48.5 µM
[5]
  GI50: 17.9 µM
  TGI: 36.7 µM
[9]
  GI50: 23.6 µM
  TGI: 57.3 µM
[6]
  GI50: 20 µM
  TGI: 40.3 µM
[7]
  GI50: 22.7 µM
  TGI: 51.9 µM
[8]
  GI50: 17.1 µM
  TGI: 31.6 µM
[10]
  GI50: 28.4 µM
  TGI: 80.6 µM

## COc1cc(/C=C2\C[C@H]3[C@@H]4CC=C5C[C@@H](O)CC[C@]5(C)[C@H]4CC[C@]3(C)[C@H]2O)ccc1OCCCn1ccnc1
[1]
  GI50: 1.81 µM
  TGI: 7.86 µM
[2]
  GI50: 4.44 µM
  TGI: 12.5 µM
[3]
  GI50: 2.12 µM
  TGI: > 50 µM
[5]
  GI50: 12.5 µM
  TGI: > 50 µM
[9]
  GI50: 32.7 µM
  TGI: > 50 µM
[6]
  GI50: 0.988 µM
  TGI: 2.01 µM
[7]
  GI50: 10.2 µM
  TGI: > 50 µM
[8]
  GI50: 1.59 µM
  TGI: 6.65 µM
[10]
  GI50: 2.63 µM
  TGI: 27.7 µM

## O=C1CCSC2=C1SCc1sccc12
[1]
  TGI: > 100 µM
[2]
  TGI: > 100 µM
[3]
  TGI: > 100 µM
[5]
  TGI: > 100 µM
[9]
  TGI: > 100 µM
[6]
  TGI: > 100 µM
[7]
  TGI: > 100 µM
[8]
  TGI: > 100 µM

## Cn1c(/C=C/[N+](=O)[O-])cc2ccccc21
[3]
  GI50: 1.47 µM
  TGI: 3.64 µM
[4]
  GI50: 2.16 µM
  TGI: 8.06 µM
[5]
  GI50: 2.05 µM
  TGI: 5.44 µM
[9]
  GI50: 15.3 µM
  TGI: 68.3 µM
[6]
  GI50: 1.67 µM
  TGI: 3.44 µM
[7]
  GI50: 15.7 µM
  TGI: 34.5 µM
[8]
  GI50: 11.4 µM
  TGI: 31 µM

## O=S(=O)(/N=c1/scc(-c2ccccc2)n1-c1ccccc1)c1ccc(N2N=C3c4ccccc4CC3C2c2cccs2)cc1 (stereo not drawn)
[1]
  GI50: 73 µM
  TGI: > 100 µM
[2]
  GI50: > 100 µM
  TGI: > 100 µM
[3]
  GI50: > 100 µM
  TGI: > 100 µM
[9]
  GI50: > 100 µM
  TGI: > 100 µM
[6]
  GI50: 32.4 µM
  TGI: > 100 µM
[7]
  GI50: > 100 µM
  TGI: > 100 µM
[8]
  GI50: 60.3 µM
  TGI: > 100 µM
[10]
  GI50: 29.1 µM
  TGI: > 100 µM

## COc1cc2c(cc1OC)C1Cc3cc(OC)c(OC)cc3C(C2)N1C
[1]
  TGI: > 100 µM
[2]
  TGI: > 75 µM
[3]
  GI50: 19.7 µM and 40.5 µM
  TGI: > 100 µM
[5]
  TGI: > 75 µM
[9]
  TGI: > 100 µM
[6]
  TGI: > 75 µM
[7]
  TGI: > 100 µM
[8]
  TGI: > 75 µM
[10]
  TGI: > 75 µM
